21 compounds from patent US9206156B2, “Substituted indole derivatives” (GRÜNENTHAL GMBH, priority 2008, dated 2015) can be followed below.

Assay [1] has as its target T1, ORL1 receptor (Homo sapiens, UniProt P41146).
T1 construct: expressed in transfected cells; host or cells: CHO (recombinant CHO-ORL1 cells), membranes
Description: ORL1 receptor binding assay with 3H-nociceptin/orphanin FQ (WGA-SPA beads). Particulars: c=1 μM test substance; 0.5 nM 3H-nociceptin/orphanin FQ; membranes of recombinant CHO-ORL1 cells. Summed up: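 Radioligand displacement on membranes from recombinant CHO-ORL1 cells, 0.5 nM 3H-nociceptin/orphanin FQ, 20 μg membrane protein per batch in 50 mM Hepes pH 7.4, 10 mM MgCl2, 1 mM EDTA. Incubated 1 h at room temperature with WGA-SPA beads, scintillation read. Reported as Ki (nM) or % inhibition at 1 μM.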

Assay [2] addresses T2, human μ-opiate receptor (Homo sapiens, UniProt P35372).
T2 construct: purchased NEN, Zaventem, Belgium RB-HOM; host or cells: CHO-K1 cells (membrane preparation)
Kind of assay: μ-opiate receptor binding assay with [3H] naloxone (WGA-SPA beads). The settings on record: 1 μmol/l test substance; 1 nmol/l [3H] naloxone; CHO-K1 cell membranes expressing human μ-opiate receptor. In short, it runs like this:
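CHO-K1 membranes expressing human μ-opiate receptor incubated 90 min at room temperature with 1 nmol/l [3H]naloxone and WGA-SPA beads in 50 mmol/l Tris-HCl with 0.05% azide, 0.06% BSA. Non-specific binding with 25 μmol/l naloxone; % inhibition at 1 μmol/l, or IC50 converted to Ki via Cheng-Prusoff.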

The structures appear in SMILES notation.

T2 sequence (P35372 whole entry): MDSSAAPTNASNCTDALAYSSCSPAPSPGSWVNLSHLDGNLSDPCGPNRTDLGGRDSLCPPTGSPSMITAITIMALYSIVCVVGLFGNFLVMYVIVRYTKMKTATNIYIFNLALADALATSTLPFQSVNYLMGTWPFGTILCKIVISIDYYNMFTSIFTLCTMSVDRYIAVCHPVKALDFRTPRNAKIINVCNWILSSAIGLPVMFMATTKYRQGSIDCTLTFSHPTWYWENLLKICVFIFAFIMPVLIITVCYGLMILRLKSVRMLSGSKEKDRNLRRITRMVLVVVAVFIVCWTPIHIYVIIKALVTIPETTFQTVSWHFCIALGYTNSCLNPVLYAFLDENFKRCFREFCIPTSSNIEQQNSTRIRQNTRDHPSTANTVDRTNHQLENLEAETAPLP
T1 sequence (P41146 whole entry): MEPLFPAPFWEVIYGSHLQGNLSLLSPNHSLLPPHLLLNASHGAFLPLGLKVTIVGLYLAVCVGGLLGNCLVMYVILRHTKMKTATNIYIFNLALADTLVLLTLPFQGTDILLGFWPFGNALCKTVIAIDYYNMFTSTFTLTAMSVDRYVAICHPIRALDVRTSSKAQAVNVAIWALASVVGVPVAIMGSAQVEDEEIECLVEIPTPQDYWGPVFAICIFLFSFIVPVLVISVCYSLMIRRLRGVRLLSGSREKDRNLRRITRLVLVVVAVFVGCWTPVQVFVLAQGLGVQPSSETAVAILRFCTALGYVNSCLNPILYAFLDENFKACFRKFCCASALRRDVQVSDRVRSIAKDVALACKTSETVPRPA

`CN(C)C1(c2cccs2)CCN(CCNCc2c[nH]c3ccc(Cl)cc23)CC1` [Example 178, 1-(2-((5-chloro-1H-indol-3-yl)methylamino)ethyl)-N,N-dimethyl-4-(thiophen-2-yl)piperidin-4-amine]: the inhibition (usually the percentage by which the read-out fell short of the control) at 1 µM in assay [1] worked out at 99%; in assay [2], 100%.

Consider `COc1ccc2[nH]cc(CNCCN3CCC(c4cccs4)(N(C)C)CC3)c2c1` [Example 76, 1-(2-((5-Methoxy-1H-indol-3-yl)methylamino)ethyl)-N,N-dimethyl-4-(thiophen-2-yl)pipendin-4-amine], for which the “% Inhibition (ORL1) at 1 μM” value in assay [1] was 93%. The “% Inhibition (μ) at 1 μM” value in assay [2] amounted to 99%.

As to `CN(C)C1(c2ccccc2)CCN(C(=O)C2CCCN(C(=O)c3ccc4cc[nH]c4c3)C2)CC1` (stereo not drawn) [Example 125, (1-(1H-indole-6-carbonyl)piperidin-3-yl)(4-(dimethylamino)-4-phenylpiperidin-1-yl)methanone], the inhibition at 1 µM was determined as 42% in assay [1] and 55% in assay [2].

As to `CN(C)C1(c2ccccc2)CCN(C(=O)C2CCCN(Cc3c(-c4ccc(F)cc4)[nH]c4ccccc34)C2)CC1` (stereo not drawn) [Example 177, (4-(dimethylamino)-4-phenylpiperidin-1-yl)(1-((2-(4-fluorophenyl)-1H-indol-3-yl)methyl)piperidin-3-yl)methanone], the inhibition at 1 µM in assay [1] was 51%; in assay [2] it was 94%.

Take `CN(C)C1(c2ccccc2)CCN(C(=O)C2CN(C(=O)c3ccc4ccn(C)c4c3)c3ccccc32)CC1` (stereo not drawn) [Example 118, (4-(dimethylamino)-4-phenylpiperidin-1-yl)(1-(1-methyl-1H-indole-6-carbonyl)indolin-3-yl)methanone]: the inhibition at 1 µM in assay [1] was determined as 46%; in assay [2], 97%.

Turning to `CN(C)C1(c2cccs2)CCN(C(=O)CC(NCc2ccc3cc[nH]c3c2)c2ccccc2)CC1` (stereo not drawn) [Example 169, 3-((1H-indol-6-yl)methylamino)-1-(4-(dimethylamino)-4-(thiophen-2-yl)piperidin-1-yl)-3-phenylpropan-1-one], the inhibition at 1 µM in assay [1] came out at 54%; in assay [2], 91%.

For `CN(CCCN1CCC(c2ccccc2)(N(C)C)CC1)C(=O)CCc1c[nH]c2ccccc12` [Example 61, N-(3-(4-(Dimethylamino)-4-phenylpiperidin-1-yl)propyl)-3-(1H-indol-3-yl)-N-methylpropanamide], the values for the inhibition at 1 µM in assay [1] and in assay [2] were 65% and 89%, respectively.

Regarding `CN(CCN1CCC(c2ccccc2)(N2CCCC2)CC1)C(=O)c1cc2cc(F)ccc2[nH]1` [Example 51, 5-Fluoro-N-methyl-N-(2-(4-phenyl-4-(pyrrolidin-1-yl)piperidin-1-yl)ethyl)-1H-indole-2-carboxamide], the inhibition at 1 µM in assay [1] worked out at 26%; in assay [2] it was 43%.

Regarding `CC(C)C(CC(=O)NCC(=O)N1CCC(c2cccs2)(N(C)C)CC1)c1c[nH]c2ccccc12` (stereo not drawn) [Example 88, N-(2-(4-(dimethylamino)-4-(thiophen-2-yl)piperidin-1-yl)-2-oxoethyl)-3-(1H-indol-3-yl)-4-methylpentanamide], the inhibition at 1 µM in assay [1] was 92%; in assay [2] it was 94%.

Take `COc1ccc2c(CN3CCCC(C(=O)N4CCC(c5ccccc5)(N(C)C)CC4)C3)c(C)n(C)c2c1` (stereo not drawn) [Example 176, (4-(dimethylamino)-4-phenylpiperidin-1-yl)(1-((6-methoxy-1,2-dimethyl-1H-indol-3-yl)methyl)piperidin-3-yl)methanone]: the figures for the inhibition at 1 µM in assay [1] and in assay [2] were 53% and 61%, respectively.

Take `CN(CCCN1CCC(c2cccs2)(N(C)C)CC1)C(=O)CCc1c[nH]c2ccccc12` [Example 21, N-(3-(4-(Dimethylamino)-4-(thiophen-2-yl)piperidin-1-yl)propyl)-3-(1H-indol-3-yl)-N-methylpropanamide]: the inhibition at 1 µM worked out at 62% in assay [1] and 87% in assay [2].

Consider `COc1ccc2[nH]c(C(=O)N(C)CCCN3CCC(c4cccs4)(N(C)C)CC3)cc2c1` [Example 22, N-(3-(4-(Dimethylamino)-4-(thiophen-2-yl)piperidin-1-yl)propyl)-5-methoxy-N-methyl-1H-indole-2-carboxamide], for which the inhibition at 1 µM in assay [1] came out at 25%; in assay [2] it was 70%.

As for `CN(C)C1(c2cccs2)CCN(CCNC(=O)CCc2c[nH]c3ccccc23)CC1` [Example 5, N-(2-(4-(Dimethylamino)-4-(thiophen-2-yl)piperidin-1-yl)ethyl)-3-(1H-indol-3-yl)propanamide], the inhibition at 1 µM was 89% in assay [1] and 98% in assay [2].

Consider `CN(CCCN1CCC(c2cccs2)(N(C)C)CC1)C(=O)c1cccc2c1ccn2C` [Example 30, N-(3-(4-(Dimethylamino)-4-(thiophen-2-yl)piperidin-1-yl)propyl)-N,1-dimethyl-1H-indole-4-carboxamide], for which the inhibition at 1 µM is 21% in assay [1] and 78% in assay [2].

As to `CC(C)C(C(=O)N1CCC(c2ccccc2)(N(C)C)CC1)N(C)Cc1ccc2cc[nH]c2c1` (stereo not drawn) [Example 149, 2-(((1H-indol-6-yl)methyl)(methyl)amino)-1-(4-(dimethylamino)-4-phenylpiperidin-1-yl)-3-methylbutan-1-one], the inhibition at 1 µM in assay [1] stood at 52%; in assay [2], 54%.

Regarding `CN(CCN1CCC(c2ccccc2)(N(C)C)CC1)C(=O)c1cc2cc(F)ccc2[nH]1` [Example 16, N-(2-(4-(Dimethylamino)-4-phenylpiperidin-1-yl)ethyl)-5-fluoro-N-methyl-1H-indole-2-carboxamide], the inhibition at 1 µM in assay [1] was determined as 89%; in assay [2], 94%.

Take `CN(C(=O)CCc1cn(C)c2ccccc12)C(C(=O)N1CCC(c2cccs2)(N(C)C)CC1)c1ccccc1` (stereo not drawn) [Example 126, N-(2-(4-(dimethylamino)-4-(thiophen-2-yl)piperidin-1-yl)-2-oxo-1-phenylethyl)-N-methyl-3-(1-methyl-1H-indol-3-yl)propanamide]: the inhibition at 1 µM in assay [1] was found to be 40%; in assay [2], 90%.

As for `CN(C)C1(c2ccccc2)CCN(C(=O)CCNC(=O)C2CCCc3c2[nH]c2ccc(Cl)cc32)CC1` (stereo not drawn) [Example 107, 6-chloro-N-(3-(4-(dimethylamino)-4-phenylpiperidin-1-yl)-3-oxopropyl)-2,3,4,9-tetrahydro-1H-carbazole-1-carboxamide], the figures for the inhibition at 1 µM in assay [1] and in assay [2] were 63% and 52%, respectively.

`CN(CCN1CCC(c2ccccc2)(N(C)C)CC1)C(=O)CCc1c[nH]c2ccccc12` [Example 4, N-(2-(4-(Dimethylamino)-4-phenylpiperidin-1-yl)ethyl)-3-(1H-indol-3-yl)-N-methylpropanamide]: the inhibition at 1 µM in assay [1] was found to be 86%; in assay [2], 93%.

In the case of `CC(C)c1ccc2c(CN(C)CCN3CCC(c4ccccc4)(N(C)C)CC3)c[nH]c2c1` [Example 180, 1-(2-(((6-isopropyl-1H-indol-3-yl)methyl)(methyl)amino)ethyl)-N,N-dimethyl-4-phenylpiperidin-4-amine], the values for the inhibition at 1 µM in assay [1] and in assay [2] were 96% and 95%, respectively.

As to `CN(C)C1(c2ccccc2)CCN(C(=O)CCNCc2c[nH]c3ccc(Br)cc23)CC1` [Example 162, 3-((5-bromo-1H-indol-3-yl)methylamino)-1-(4-(dimethylamino)-4-phenylpiperidin-1-yl)propan-1-one], the inhibition at 1 µM in assay [1] came out at 63%; in assay [2], 80%.
